Laboratory results from patent publication US10285982B2, “3-(1H-pyrrolo[2,3-B]pyridin-2-yl)-1H-pyrazolo[3,4-C]pyridines and therapeutic uses thereof” (Samumed, LLC, priority 2015, dated 2019).
pEC50: −log10 of the molar value.

How the values were obtained:
Type in all cases: cell-based
[1] = tested on: Wnt activity (Sp5-Luc reporter, SW480 colon carcinoma cells); experiment: Wnt activity screening assay, Sp5-Luc reporter gene in SW480 cells; conditions: Homo sapiens, overnight incubation
From the text: The screening assay for Wnt activity is described as follows. Reporter cell lines can be generated by stably transducing cancer cell lines (e.g., colon cancer) or primary cells (e.g., IEC-6 intestinal cells) with a lentiviral construct that includes a Wnt-responsive promoter driving expression of the firefly luciferase gene.
SW480 colon carcinoma cells were transduced with a lentiviral vector expressing luciferase with a human Sp5 promoter consisting of a sequence of eight TCF/LEF binding sites. SW480 cells stably expressing the Sp5-Luc reporter gene and a hygromycin resistance gene were selected by treatment with 150 μg/mL of hygromycin for 7 days. These stably transduced SW480 cells were expanded in cell culture and used for all further screening activities. Each compound was dissolved in DMSO as a 10 mM stock and used to prepare compound source plates. Serial dilution (1:3, 10-point dose-response curves starting from 10 μM) and compound transfer was performed using the ECHO 550 (Labcyte, Sunnyvale, Calif.) into 384-well white solid bottom assay plates (Greiner Bio-One) with appropriate DMSO backfill for a final DMSO concentration of 0.1%. For Sp5-Luc reporter gene assays, the cells were plated at 4,000 cells/well in 384-well plates with medium containing 1% fetal bovine serum and incubated overnight at 37° C. and 5% CO2. Following incubation, 20 μl of BrightGlo luminescence reagent (Promega) was added to each well of the 384-well assay plates. The plates were placed on an orbital shaker for 2 min and then luminescence was quantified using the Envision (Perkin Elmer) plate reader. Readings were normalized to DMSO only treated cells, and normalized activities were utilized for EC50 calculations using the dose-response log (inhibitor) vs. response-variable slope (four parameters) nonlinear regression feature available in GraphPad Prism 5.0 (or Dotmatics). For EC50 of >10 μM, the percent inhibition at 10 μM is provided.

[2] = tested on: SW480 colon cancer cells; experiment: Cell viability assay (CellTiter-Blue); conditions: Homo sapiens, 96 h, four days
Experimental: Representative compounds were screened using the following assay procedure to assess the effect on cell viability as described below.
Each compound was dissolved in DMSO as a 10 mM stock and used to prepare compound source plates. Serial dilution (1:3, 8-point dose-response curves from 10 μM to 0.0045 μM) and compound transfer was performed using the ECHO 550 (Labcyte, Sunnyvale, Calif.) into 96-well clear bottom, black-walled plates (Corning-Costar).
Approximately 2×10^3 SW480 colon cancer cells were seeded into each well and allowed to incubate in the presence or absence of compound for four days at 37° C./5% CO2. Eight replicates of DMSO-treated cells served as controls and cells treated with compound were performed in duplicate.
After incubation, 20 μL of CellTiter-Blue (Promega) was added to each well allowed to incubate for approximately 3 hours. This reagent was a buffered solution which contains resazurin, metabolically active cells were able to reduce rezarurin (blue) into resorufin (pink) which was highly fluorescent. This measured fluorescence was used as a readout for cell viability.
After incubation, the plates were read at Ex 560 nm Em 590 nm (Cytation 3, BioTek). Dose-response curves were generated and EC50 concentration values were calculated using non-linear regression curve fit in the GraphPad Prism (San Diego, Calif.) or Dotmatics' Studies Software (Bishops Stortford, UK). For EC50 of >10 μM, the percent inhibition at 10 μM is provided.

[3] = tested on: primary human fibroblasts derived from IPF patients (LL29 cells) treated with TGF-β1; experiment: Inhibition of fibrotic process, αSMA staining in TGF-β1 treated LL29 fibroblasts; conditions: Fibroblast, 96 h, % αSMA positive LL29 cells, TGF-β1 20 ng/mL, 4 days
From the text: Representative compounds were screened using primary human fibroblasts (derived from IPF patients) treated with TGF-β1 to determine their ability to inhibit the fibrotic process.
Primary human fibroblasts derived from IPF patients (LL29 cells) [^1Xiaoqiu Liu, et. al., “Fibrotic Lung Fibroblasts Show Blunted Inhibition by cAMP Due to Deficient cAMP Response Element-Binding Protein Phosphorylation”, Journal of Pharmacology and Experimental Therapeutics (2005), 315(2), 678-687; ^2Watts, K. L., et. al., “RhoA signaling modulates cyclin D1 expression in human lung fibroblasts; implications for idiopathic pulmonary fibrosis”, Respiratory Research (2006), 7(1), 88] were obtained from American Type Culture Collection (ATCC) and expanded in F12 medium supplemented with 15% Fetal Bovine Serum and Penicillin/Streptomycin.
Each compound was dissolved in DMSO as a 10 mM stock and used to prepare compound source plates. Serial dilution (1:2, 11-point dose-response curves from 10 μM to 1.87 nM) and compound transfer was performed using the ECHO 550 (Labcyte, Sunnyvale, Calif.) into 384-well clear bottom assay plates (Greiner Bio-One) with appropriate DMSO backfill for a final DMSO concentration of 0.1%. LL29 cells are plated at 1,500 cells/well in 80 μL/well F12 medium supplemented with 1% Fetal Bovine Serum. One hour after addition of the cells, TGF-β1 (Peprotech; 20 ng/mL) was added to the plates to induce fibrosis (ref. 1 and 2 above). Wells treated with TGF-β1 and containing DMSO were used as controls. Cells were incubated at 37° C. and 5% CO2 for 4 days. Following incubation for 4 days, SYTOX green nucleic acid stain (Life Technologies [Thermo Fisher Scientific]) was added to the wells at a final concentration of 1 μM and incubated at room temperature for 30 min. Cells were then fixed using 4% formaldehyde (Electron Microscopy Sciences), washed 3 times with PBS followed by blocking and permeabilization using 3% Bovine Serum Albumin (BSA; Sigma) and 0.3% Triton X-100 (Sigma) in PBS. Cells were then stained with antibody specific to α-smooth muscle actin (αSMA; Abcam) (ref. 1 and 2 above) in 3% Bovine Serum Albumin (BSA; Sigma) and 0.3% Triton X-100 (Sigma) in PBS, and incubated overnight at 4° C. Cells were then washed 3 times with PBS, followed by incubation with Alexa Flor-647 conjugated secondary antibody (Life Technologies [Thermo Fisher Scientific]) and DAPI at room temperature for 1 hour. Cells were then washed 3 times with PBS and plates were sealed for imaging. αSMA staining was imaged by excitation at 630 nm and emission at 665 nm and quantified using the Compartmental Analysis program on the CellInsight CX5 (Thermo Scientific). Dead or apoptotic cells were excluded from analysis based on positive SYTOX green staining. % of total cells positive for αSMA were counted in each well and normalized to the average of 11 wells treated with TGF-β1 on the same plate using Dotmatics' Studies Software. The normalized averages (fold change over untreated) of 3 replicate wells for each compound concentration were used to create dose-responses curves and EC50 values were calculated using non-linear regression curve fit in the Dotmatics' Studies Software. For EC50 of >10 μM, the percent inhibition at 10 μM is provided.

[4] = tested on: IL-6 (THP-1 cells); experiment: IL-6 inhibition in LPS-stimulated THP-1 cells (HTRF); conditions: Homo sapiens; IL-6 in THP-1 cells, LPS 500 ng/mL, 22 hours
Experimental: Human monocyte cell line (THP-1 cells; Catalog # TIB-202, ATCC, Manassas, Va.) were cultured in Roswell Park Memorial Institute (RPMI) 1640 Medium (Catalog #21870-100, Buffalo, N.Y.) with 1% L-glutamine, 1% HEPES, 1% Sodium Pyruvate, 2% Sodium Bicarbonate supplemented with 100 units/mL penicillin, 50 μg/mL streptomycin, 2-mercaptoethanol (0.05 mM) [basal medium] and 10% fetal bovine serum (Catalog #16140089, Life Technologies, Carlsbad, Calif.) at 37° C. and 5% CO2.
THP-1 cells were cultured in basal media with 1% FBS for 24 hours before the start of the assay. Each compound was dissolved in DMSO as a 10 mM stock and used to prepare compound source plates. Serial dilution (1:3, 10-point dose-response curves starting from 10 μM) and compound transfer was performed using the ECHO 550 (Labcyte, Sunnyvale, Calif.) into 384-well white low volume assay plates (Greiner Bio-One) with appropriate DMSO backfill for a final DMSO concentration of 0.1%. THP-1 cells were plated at 5000 cells/well in the 384-well plates and incubated at 37° C. for 2 h. 500 ng/mL of LPS was added after 2 hours and cells were incubated for another 22 hours at 37° C. Plates were spun in a centrifuge for 1 minute at […] and a mixture of anti-IL6 XL665, and anti-IL6 Cryptate diluted in reconstitution buffer (Cisbio Inc.) was added to each well. Following incubation for 3 hrs at room temperature, Homogeneous Time-Resolved Fluorescence (HTRF) was measured using the Envision (Perkin Elmer) at 665 nm and […]. The ratio of fluorescence at 665 nm to 620 nm was used as a readout for IL6 quantification. All samples were processed in duplicate. Readings were normalized to DMSO treated cells and normalized activities were utilized for EC50 calculations using the dose-response log (inhibitor) vs. response-variable slope (four parameters) nonlinear regression feature available in GraphPad Prism 5.0 (or Dotmatics). For EC50 of >10 μM, the percent inhibition at 10 μM is provided.

Compound	pEC50 [1]	pEC50 [2]	pEC50 [3]	pEC50 [4]
c1ccc(-c2cc3c(-c4cc5c(-c6cccs6)ccnc5[nH]4)n[nH]c3cn2)nc1 [Compound 364, 5-(Pyridin-2-yl)-3-(4-(thiophen-2-yl)-1H-pyrrolo[2,3-b]pyridin-2-yl)-1H-pyrazolo[3,4-c]pyridine]	6.20	6.15	6.39	5.99
O=C(Nc1cncc(-c2cc3c(-c4cc5c(-c6ccoc6)ccnc5[nH]4)n[nH]c3cn2)c1)C1CC1 [Compound 328, N-(5-(3-(4-(Furan-3-yl)-1H-pyrrolo[2,3-b]pyridin-2-yl)-1H-pyrazolo[3,4-c]pyridin-5-yl)pyridin-3-yl)cyclopropanecarboxamide]	6.92	6.97	7.43	6.27
Cc1ccncc1-c1cc2c(-c3cc4c(-c5ccc(F)cc5)ccnc4[nH]3)n[nH]c2cn1 [Compound 33, 3-(4-(4-Fluorophenyl)-1H-pyrrolo[2,3-b]pyridin-2-yl)-5-(4-methylpyridin-3-yl)-1H-pyrazolo[3,4-c]pyridine]	6.19	5.98	6.84	5.39
